Measurements as given in the supplement of paper PMC10307832.

What was measured:
Test in all cases: relative viability (nuclei count vs DMSO), 5 days (fraction); higher = more cells survive
[1] = compound: C1=CC=C2C(=C1)N=C(S2)C(C#N)C3=NC(=NC=C3)NCCC4=CN=CC=C4 + O=C(c1cc(Cc2n[nH]c(=O)c3ccccc23)ccc1F)N1CCN(C(=O)C2CC2)CC1 [Olaparib] (partner 8 µM)
In short: (§1)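 Each reported value is a median over duplicate plates. It expresses relative viability: treated-well nuclei count divided by vehicle-well nuclei count. Lung cancer cell lines in 1536-well plates were dosed by pin tool a day after seeding, alone with one drug or with a fixed anchor-drug dose plus five library-drug doses (not always all listed) in √10 steps, and nuclei were counted after 5 days.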

Vandetanib + Foretinib = compound: COc1cc2/c(=N/c3ccc(Br)cc3F)nc[nH]c2cc1OCC1CCN(C)CC1 [Vandetanib] + COc1cc2c(Oc3ccc(NC(=O)C4(C(=O)Nc5ccc(F)cc5)CC4)cc3F)ccnc2cc1OCCCN1CCOCC1 [Foretinib] (partner 0.25 µM)
In short: as §1

CUDC-101 + Foretinib = compound: C#Cc1cccc(Nc2ncnc3cc(OC)c(OCCCCCCC(=O)NO)cc23)c1 [CUDC-101] + COc1cc2c(Oc3ccc(NC(=O)C4(C(=O)Nc5ccc(F)cc5)CC4)cc3F)ccnc2cc1OCCCN1CCOCC1 [Foretinib] (partner 0.25 µM)
In short: as §1

CUDC-101 + AZD7762 = compound: C#Cc1cccc(Nc2ncnc3cc(OC)c(OCCCCCCC(=O)NO)cc23)c1 [CUDC-101] + NC(=O)Nc1cc(-c2cccc(F)c2)sc1C(=O)N[C@H]1CCCNC1 [AZD7762] (partner 0.2 µM)
In short: as §1

Row | Cell Line | relative viability ([1]; first compound 0.005 µM) | relative viability ([1]; first compound 0.01581 µM) | relative viability ([1]; first compound 0.05 µM) | relative viability ([1]; first compound 0.1581 µM) | relative viability ([1]; first compound 0.5 µM) | relative viability (Vandetanib + Foretinib; first compound 0.02 µM) | relative viability (Vandetanib + Foretinib; first compound 0.06325 µM) | relative viability (Vandetanib + Foretinib; first compound 0.2 µM) | relative viability (Vandetanib + Foretinib; first compound 0.6325 µM) | relative viability (Vandetanib + Foretinib; first compound 2 µM) | relative viability (CUDC-101 + Foretinib; first compound 0.01 µM) | relative viability (CUDC-101 + Foretinib; first compound 0.03162 µM) | relative viability (CUDC-101 + Foretinib; first compound 0.1 µM) | relative viability (CUDC-101 + Foretinib; first compound 0.3162 µM) | relative viability (CUDC-101 + Foretinib; first compound 1 µM) | relative viability (CUDC-101 + AZD7762; first compound 0.01 µM) | relative viability (CUDC-101 + AZD7762; first compound 0.03162 µM) | relative viability (CUDC-101 + AZD7762; first compound 0.1 µM) | relative viability (CUDC-101 + AZD7762; first compound 0.3162 µM) | relative viability (CUDC-101 + AZD7762; first compound 1 µM)
1 | NCI-H1355 | 0.704 | 0.761 | 0.764 | 0.825 | 0.769 | 0.94 | 0.981 | 1 | 0.936 | 0.946 | 1.08 | 1.01 | 1.03 | 1.07 | 0.821 | 0.657 | 0.645 | 0.846 | 0.747 | 0.598
2 | NCI-H1395 | 0.476 | – | 0.475 | 0.457 | 0.541 | 0.969 | 1.02 | 1.02 | 0.972 | 0.998 | 1.05 | 0.846 | 1.01 | 1.09 | 0.844 | 0.374 | 0.375 | 0.397 | 0.396 | 0.327
3 | NCI-H1437 | 0.542 | 0.607 | 0.65 | 0.673 | 0.507 | 1.26 | 1.25 | 0.271 | 1.35 | 1.19 | 1.38 | 1.08 | 1.27 | 1.38 | 1.27 | 1.1 | 1 | 1.11 | 1.2 | 1.05
4 | NCI-H1651 | 0.178 | 0.17 | 0.172 | 0.182 | 0.163 | 0.938 | 0.721 | 0.13 | 0.786 | 0.708 | 0.821 | 0.741 | 1.07 | 0.82 | 0.609 | 0.502 | 0.442 | 0.534 | 0.398 | 0.349
5 | NCI-H1666 | 0.754 | 0.761 | 0.764 | 0.767 | 0.681 | 0.908 | 0.947 | 0.439 | 0.93 | 0.786 | 0.958 | 0.979 | 1 | 1.06 | 0.932 | 0.943 | 0.741 | 0.879 | 0.92 | 0.641
6 | NCI-H1703 | 0.357 | 0.353 | – | 0.377 | 0.66 | 0.338 | 0.346 | 0.42 | 0.328 | 0.339 | 0.323 | – | 0.353 | 0.402 | 0.424 | 0.141 | 0.117 | 0.11 | 0.116 | 0.125
7 | NCI-H1734 | 0.509 | 0.616 | 0.664 | 0.633 | 0.614 | 0.825 | 0.913 | 0.169 | 0.903 | 0.771 | 0.968 | 0.775 | 0.863 | 0.898 | 0.451 | 0.521 | 0.433 | 0.462 | 0.312 | 0.182
8 | NCI-H1755 | 0.914 | 0.994 | 0.881 | 1.06 | 0.943 | 0.9 | 0.884 | 0.9 | 0.956 | 0.868 | 0.899 | 0.905 | 0.99 | 1.01 | 0.903 | 0.387 | 0.396 | 0.463 | 0.43 | 0.317
9 | NCI-H1793 | – | 0.931 | 0.781 | 0.995 | 0.804 | 0.605 | 0.606 | 0.406 | 0.648 | 0.41 | 0.669 | 0.449 | 0.628 | 0.5 | 0.403 | 0.406 | 0.31 | 0.477 | 0.648 | 0.211
10 | NCI-H1915 | – | 0.266 | 0.249 | 0.283 | 0.292 | 1.08 | 1.11 | 1.11 | 1.08 | 1.06 | 1.09 | 1.04 | 1.08 | 1.09 | 0.707 | 0.717 | 0.631 | 0.61 | 0.548 | 0.516
11 | NCI-H1944 | 0.358 | 0.432 | 0.361 | 0.41 | 0.619 | 0.895 | 0.887 | 0.904 | 0.813 | 0.783 | 0.931 | 0.691 | 0.861 | 0.612 | 0.397 | 0.503 | 0.466 | 0.44 | 0.311 | 0.198
12 | NCI-H1975 | 0.658 | 0.866 | 0.78 | 0.913 | 0.475 | 0.908 | 0.901 | 0.136 | 0.842 | 0.912 | 0.856 | 1.03 | 0.99 | 1.04 | 0.808 | 0.749 | 0.743 | 0.665 | 0.761 | 0.722
13 | NCI-H1993 | 0.903 | 1.06 | 1.18 | 0.986 | 1.06 | 0.836 | 0.78 | 0.557 | 0.788 | 0.64 | 0.862 | 0.791 | 0.839 | 0.734 | 0.612 | 0.811 | 0.87 | 0.855 | 0.704 | 0.428
14 | NCI-H2085 | 0.765 | 0.765 | 0.738 | 0.778 | 0.794 | 0.935 | 0.852 | 0.351 | 0.993 | 0.836 | 0.964 | 0.929 | 0.823 | 0.996 | 0.697 | 0.956 | 1.01 | 1.06 | 0.922 | 0.877
15 | NCI-H2087 | 0.385 | 0.562 | 0.509 | 0.759 | 0.433 | 1.15 | 0.886 | 0.181 | 1.38 | 1.11 | 1.33 | 1.03 | 1.08 | 1.04 | 0.664 | 1.32 | 1.46 | 1.28 | 1.24 | 0.815
16 | NCI-H2126 | 0.771 | 0.945 | 0.887 | 0.978 | 0.75 | 1.17 | 1.16 | 1.11 | 1.14 | 1.11 | 1.25 | 0.971 | 1.08 | 1.26 | 1.01 | 1.01 | 0.98 | 0.939 | 0.945 | 0.943
